Assay results: patent publication US9458176B2, “Tetrahydroimidazo(1,5-D)[1,4]oxazepine derivative” (Eisai R&D Management Co., Ltd., priority 2013, dated 2016)

Target: human mGluR2 (Homo sapiens (Human), UniProt Q14416)
Assay: [35S]GTPγS binding assay (Affinity to mGluR2)
Type: biochemical
Conditions: cell membrane fraction of HEK293 cells stably expressing human mGluR2; glutamic acid 10 μM
Procedure: (Preparation of Cell Membrane Fraction of HEK293 Cells Stably Expressing Human Metabotropic Glutamate Receptor 2 (mGluR2))
HEK293 cells stably expressing human mGluR2 and human glutamate transporter SLC1A3 were cultured in a Dulbecco's modified Eagle's medium with 10% fetal bovine serum (50 units/mL of penicillin, 50 μg/mL of streptomycin, 60 μg/mL of geneticin, 400 μg/mL of hygromycin B and 2 mM of glutamine) at 37° C. under 5% CO2. Confluent cell cultures were washed twice with PBS(−), and then scraped off with a cell scraper, and subjected to centrifugal separation at 4° C. and 1500 rpm for 5 minutes for collecting cells. The centrifuged sediment (cell pellet) was homogenized in a 20 mM HEPES buffer containing 10 mM EDTA (pH 7.4) by using sonicator and centrifuged at 4° C. and 1500×g for 30 minutes. The supernatant (soluble fraction) was subjected to the centrifugal separation at 4° C. and 40,000×g for 30 minutes, and thus, insoluble fraction was obtained. After additional centrifugally washing the obtained fraction with 20 mM HEPES buffer containing 10 mM EDTA (pH 7.4), the pellet was centrifugally suspended with a 20 mM HEPES buffer containing 0.1 mM EDTA, and the cell membrane fraction was obtained by the centrifugal separation at 4° C. and 40,000×g for 30 minutes. The thus obtained cell membrane fraction was suspended in a 20 mM HEPES buffer containing 0.1 mM EDTA in a protein concentration of 3 mg/mL, which was stored at −80° C.
([^35S]GTPγS Binding Assay)
The frozen cell membrane fraction prepared as described above was thawed before use, and the resultant was diluted with a buffer for a binding assay (final concentrations: 20 mM HEPES, 100 mM NaCl, 1 mM MgCl2, 3 μM GDP, 300 μg/mL saponin, 0.1% BSA). The compound of each example was added to a cell membrane fraction containing 1.8 to 3 μg/assay of membrane protein on a plate, followed by incubation at room temperature for 30 minutes. Thereafter, with glutamic acid (in a final concentration of 10 μM) added thereto, incubation was performed at room temperature for 15 minutes, and thereafter, [^35S]GTPγS (in a final concentration of 0.8 kBq) and 588 μg WGA-SPA beads were added thereto, followed by incubation at room temperature for 1 hour. After the incubation, the plate was subjected to the centrifugal separation at 2,500 rpm and room temperature, and then, membrane cell binding radioactivity was measured with a top count.
A [^35S]GTPγS binding amount obtained by performing the above-described reaction in the absence of glutamic acid was defined as nonspecific binding, and a difference from a [^35S]GTPγS binding amount obtained in the presence of glutamic acid was defined as specific binding. On the basis of ratios of inhibiting the specific binding at various concentrations of the compounds of the respective examples, inhibition curves were obtained. Concentrations of the compounds of the respective examples at which the specific [^35S]GTPγS binding amount was suppressed by 50% (IC50 values) were calculated on the basis of the inhibition curves and shown in Tables 8 and 9.

human mGluR2, sequence (Q14416 19-872): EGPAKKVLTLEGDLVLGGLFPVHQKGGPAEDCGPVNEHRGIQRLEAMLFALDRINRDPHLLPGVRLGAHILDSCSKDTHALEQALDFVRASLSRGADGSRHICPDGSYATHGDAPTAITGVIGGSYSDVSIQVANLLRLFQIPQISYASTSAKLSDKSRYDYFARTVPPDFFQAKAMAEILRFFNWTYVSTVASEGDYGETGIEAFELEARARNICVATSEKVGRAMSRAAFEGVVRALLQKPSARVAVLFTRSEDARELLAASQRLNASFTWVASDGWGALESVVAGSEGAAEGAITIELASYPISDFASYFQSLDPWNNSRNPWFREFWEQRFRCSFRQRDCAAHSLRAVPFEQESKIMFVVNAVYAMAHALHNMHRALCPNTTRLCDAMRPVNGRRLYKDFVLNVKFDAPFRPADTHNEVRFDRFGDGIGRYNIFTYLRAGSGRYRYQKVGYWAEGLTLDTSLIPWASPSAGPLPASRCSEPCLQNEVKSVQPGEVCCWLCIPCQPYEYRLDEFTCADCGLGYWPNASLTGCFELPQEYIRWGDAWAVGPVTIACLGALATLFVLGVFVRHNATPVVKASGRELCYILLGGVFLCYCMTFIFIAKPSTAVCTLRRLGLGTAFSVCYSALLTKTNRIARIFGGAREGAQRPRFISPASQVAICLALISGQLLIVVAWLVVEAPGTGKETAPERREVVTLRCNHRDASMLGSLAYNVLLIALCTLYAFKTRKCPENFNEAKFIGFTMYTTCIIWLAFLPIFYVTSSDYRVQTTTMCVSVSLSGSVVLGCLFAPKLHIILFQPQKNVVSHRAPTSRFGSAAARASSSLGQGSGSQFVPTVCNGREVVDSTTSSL

IC50 [nM] | Structure (SMILES)
13.2 | COc1cc(-c2nc(-c3ccnc(C)c3)c3n2C[C@@H](C)OCC3)ccc1C(F)(F)F [Example 8, (R)-3-(3-methoxy-4-(trifluoromethyl)phenyl)-6-methyl-1-(2-methylpyridin-4-yl)-5,6,8,9-tetrahydroimidazo[1,5-d][1,4]oxazepine]
45.3 | Cc1cc(-c2nc(-c3ccc(OC(F)(F)F)cc3)n3c2CCOCC3)cc(C)n1 [Example 42]
4.7 | Cc1cc(-c2nc(-c3ccc(OC(F)F)c(C)c3)n3c2CCO[C@H](CF)C3)ccn1 [Example 40, (S)-3-(4-(difluoromethoxy)-3-methylphenyl)-6-(fluoromethyl)-1-(2-methylpyridin-4-yl)-5,6,8,9-tetrahydroimidazo[1,5-d][1,4]oxazepine]
95.8 | Cc1cc(-c2nc(-c3ccc(F)c(OCC(F)F)c3)n3c2CCOCC3)cc(C)n1 [Example 92]
25.5 | Cc1cc(-c2nc(-c3ccc(OC(F)(F)F)cc3)n3c2CCO[C@H](CF)C3)ccn1 [Example 70]
54 | Cc1cc(-c2nc(-c3ccc(C(F)(F)F)c(F)c3)n3c2CCOCC3)cc(C)n1 [Example 107]
21.9 | COc1cc(-c2nc(-c3ccnc(C)c3)c3n2C[C@@H](C)OCC3)ccc1C [Example 55]
4.7 | Cc1cc(-c2nc(-c3ccc(OC(F)(F)F)c(C)c3)n3c2CCO[C@H](C)C3)cc(C)n1 [Example 67]
49.5 | Cc1cc(-c2nc(-c3ccc(F)c(OCC(C)C)c3)n3c2CCOCC3)cc(C)n1 [Example 95]
33.9 | COc1cc(-c2nc(-c3cc(C)nc(C)c3)c3n2C[C@@H](C)OCC3)ccc1F [Example 136]
73.9 | Cc1cc(-c2nc(-c3ccc(F)c(OC(F)(F)F)c3)n3c2CCOCC3)cc(C)n1 [Example 45]
47.5 | Cc1cc(-c2nc(-c3ccc(C(F)(F)F)c(F)c3)n3c2CCO[C@H](C)C3)ccn1 [Example 139]
7.9 | COc1cc(-c2nc(-c3cc(C)nc(C(F)F)c3)c3n2C[C@@H](CF)OCC3)ccc1C(F)(F)F [Example 31, (S)-1-(2-(difluoromethyl)-6-methylpyridin-4-yl)-6-(fluoromethyl)-3-(3-methoxy-4-(trifluoromethyl)phenyl)-5,6,8,9-tetrahydroimidazo[1,5-d][1,4]oxazepine]
21.9 | Cc1cc(-c2nc(-c3ccc(Cl)c(F)c3)n3c2CCO[C@H](C)C3)cc(C)n1 [Example 56]
1.7 | CCOc1cc(-c2nc(-c3ccnc(C)c3)c3n2C[C@@H](C)OCC3)ccc1C(F)(F)F [Example 83]
33.8 | Cc1cc(-c2nc(-c3ccc(OC(F)(F)F)c(C#N)c3)n3c2CCOCC3)cc(C)n1 [Example 116]
6.3 | COc1cc(-c2nc(-c3cc(C)nc(C(F)F)c3)c3n2C[C@@H](C)OCC3)ccc1C [Example 80]

IC50 [nM] | Structure (SMILES)
21.7 | Cc1cc(-c2nc(-c3ccc(Cl)cc3)n3c2CCO[C@H](C)C3)cc(C)n1 [Example 61]
31.8 | Cc1cc(-c2nc(-c3ccc(OC(F)F)c(F)c3)n3c2CCOCC3)cc(C)n1 [Example 119]
31.2 | Cc1cc(-c2nc(-c3cccc(OC(F)(F)F)c3)n3c2CCO[C@H](C)C3)cc(C)n1 [Example 64]
21.2 | Cc1cc(-c2nc(-c3ccc(F)c(Cl)c3)n3c2CCO[C@H](C)C3)cc(C)n1 [Example 138]
7.8 | Cc1cc(-c2nc(-c3ccc(OC(F)(F)F)cc3)n3c2CCO[C@H](C)C3)cc(C)n1 [Example 51]
92.1 | Cc1cc(-c2nc(-c3ccc(Cl)c(F)c3)n3c2CCOCC3)cc(C)n1 [Example 105]
119 | COc1ccc(-c2nc(-c3ccnc(C)c3)c3n2C[C@@H](C)OCC3)cc1F [Example 60]
242 | COc1cc(-c2nc(-c3ccnc(CO)c3)c3n2C[C@@H](C)OCC3)ccc1Cl [Example 47]
17.9 | Cc1cc(-c2nc(-c3ccc(OC(F)(F)F)c(Cl)c3)n3c2CCOCC3)cc(C)n1 [Example 112]
47.2 | Cc1cc(-c2nc(-c3ccc(OC(F)F)c(F)c3)n3c2CCOCC3)ccn1 [Example 120]
13.2 | Cc1cc(-c2nc(-c3ccc(Cl)c(OC(F)(F)F)c3)n3c2CCO[C@H](C)C3)cc(C)n1 [Example 68]
13.2 | Cc1cc(-c2nc(-c3ccc(Cl)c(Cl)c3)n3c2CCO[C@H](C)C3)cc(CF)n1 [Example 89]
25.2 | Cc1cc(-c2nc(-c3ccc(Cl)c(C#N)c3)n3c2CCOCC3)cc(C)n1 [Example 111]
22 | COc1cc(-c2nc(-c3cc(C)nc(C)c3)c3n2CCOCC3)ccc1OC(F)(F)F [Example 117]
20.9 | Cc1cc(-c2nc(-c3ccc(OC(F)(F)F)c(F)c3)n3c2CCOCC3)cc(C)n1 [Example 106]
3 | Cc1cc(-c2nc(-c3ccc(OC4CC4)c(Cl)c3)n3c2CCO[C@H](C)C3)cc(C)n1 [Example 19, (R)-3-(3-chloro-4-cyclopropoxyphenyl)-1-(2,6-dimethylpyridin-4-yl)-6-methyl-5,6,8,9-tetrahydroimidazo[1,5-d][1,4]oxazepine]
31 | Cc1cc(-c2nc(-c3ccc(Cl)c(Cl)c3)n3c2CCO[C@H](CF)C3)ccn1 [Example 75]

Same assay, conditions: cell membrane fraction of HEK293 cells stably expressing human mGluR2; glutamic acid 10 μM; inhibition of specific [35S]GTPγS binding

IC50 [nM] | Structure (SMILES)
5 | Cc1cc(-c2nc(-c3ccc(OC4CC4)c(Cl)c3)n3c2CCO[C@H](C)C3)ccn1 [Example 159]
82 | Cc1cc(-c2nc(-c3ccc(C)c(OCC4CCOCC4)c3)n3c2CCO[C@H](C)C3)cc(C)n1 [Example 228]
58.1 | Cc1cc(-c2nc(-c3ccc(OC(F)F)c(Cl)c3)n3c2CCOCC3)cc(C)n1 [Example 215]
17.2 | CCc1ccc(-c2nc(-c3cc(C)nc(C)c3)c3n2C[C@@H](C)OCC3)cc1OCC1CC1 [Example 222]
9 | COc1cc(-c2nc(-c3cc(C)nc(C(F)F)c3)c3n2C[C@@H](CF)OCC3)ccc1OC(F)F [Example 193]
7.9 | CCOc1cc(-c2nc(-c3ccnc(C)c3)c3n2C[C@@H](C)OCC3)ccc1CC [Example 219]
16.1 | Cc1cc(-c2nc(-c3ccc(OC(F)F)c(F)c3)n3c2CCO[C@H](C)C3)cc(C)n1 [Example 181]
30.3 | Cc1cc(-c2nc(-c3ccc(OC(F)F)c(CO)c3)n3c2CCO[C@H](C)C3)ccn1 [Example 237]
26.7 | CCc1ccc(-c2nc(-c3ccnc(C)c3)c3n2C[C@@H](C)OCC3)cc1OCC1CC1 [Example 221]
60.6 | Cc1cc(-c2nc(-c3ccc(OCC4CC4)c(Cl)c3)n3c2CCOCC3)cc(C)n1 [Example 217]
27.1 | Cc1cc(-c2nc(-c3ccc(OC(F)(F)F)c(CF)c3)n3c2CCOCC3)cc(C)n1 [Example 211]
100 | Cc1cc(-c2nc(-c3ccc(OC(F)(F)F)c(F)c3)n3c2CCO[C@H](C)C3)cc(CO)n1 [Example 180]
72.5 | Cc1cc(-c2nc(-c3ccc(Cl)c(OC(F)F)c3)n3c2CCOCC3)cc(C)n1 [Example 212]
5 | COc1cc(-c2nc(-c3cc(C)nc(C(F)F)c3)c3n2C[C@@H](C)OCC3)ccc1OC(F)F [Example 192]
20.2 | Cc1cc(-c2nc(-c3ccc(C(F)(F)F)cc3)n3c2CCO[C@H](C)C3)cc(C)n1 [Example 142]
78.8 | Cc1cc(-c2nc(-c3ccc(OCC(F)F)c(Cl)c3)n3c2CCOCC3)cc(C)n1 [Example 218]
17.8 | COc1ccc(-c2nc(-c3cc(C)nc(C(F)F)c3)c3n2C[C@@H](C)OCC3)cc1C [Example 178]
19.3 | Cc1cc(-c2nc(-c3ccc(C(F)(F)F)c(C)c3)n3c2CCO[C@H](CF)C3)cc(C)n1 [Example 186]
19.2 | COc1ccc(-c2nc(-c3ccnc(C)c3)c3n2C[C@@H](C)OCC3)cc1OC(F)(F)F [Example 155]
1.9 | Cc1cc(-c2nc(-c3ccc(OC(F)F)c(CF)c3)n3c2CCO[C@H](C)C3)cc(C)n1 [Example 234]
13.2 | Cc1cc(-c2nc(-c3ccc(OC(F)(F)F)c(C)c3)n3c2CCOCC3)cc(CF)n1 [Example 198]
19.5 | Cc1cc(-c2nc(-c3ccc(F)c(OC(F)F)c3)n3c2CCO[C@H](C)C3)ccn1 [Example 185]
